Measured values from paper PMC9862026, “In Vivo Toxicity, Redox-Modulating Capacity and Intestinal Permeability of Novel Aroylhydrazone Derivatives as Anti-Tuberculosis Agents” (Pharmaceutics, 2022).
≈ marks a conversion by molar mass, not a printed value. Entries after “also recorded” stand apart in the source; their conditions may differ. Where two headings read alike, the source gives them in different places. Marks after values point to notes of the source that are not given here.

How the values were obtained:
[1] = system: male Jcl:ICR mice; assay: Sub-acute toxicity, 14 days oral: body weight; type: in vivo; settings: 125 mg/kg oral, end of 14-day period
Procedure: (§1) The sub-acute toxicity effects were assessed after repeated (14 days) oral administration to male mice. […] The experiments were performed with male Jcl: ICR mice at the same age of 6 weeks and weighing approximately 30–35 g, in which the substances were administered daily for 14 days orally with a gastric tube at approximately the same time of the day. The compounds were solubilized with Tween 80 (0.1%) in distilled water and administered orally in a volume of 0.1 mL per 10.0 g. Animals were observed daily for behavioral changes and signs of toxicity. All results were compared with the positive control isoniazid (INH).
(§2) Serum biochemical parameters were assessed as follows.

[2] = system: male Jcl:ICR mice; assay: Sub-acute toxicity, 14 days oral: complete blood count; type: in vivo
Procedure: as §1, §2

[3] = system: male Jcl:ICR mice; assay: Sub-acute toxicity, 14 days oral: serum biochemical parameters; type: in vivo; settings: serum
Procedure: as §1, §2

[4] = DPPH assay; settings: 0.1 mM DPPH in methanol, 30 min
Procedure: DPPH (2,2′-diphenyl-1-picrylhydrazyl radical) assay analysis of pure compounds was conducted by the method described by Brand-Williams et al.. First, 500 μL of the test solutions were added to 500 μL of a freshly prepared solution of 0.1 mM DPPH in methanol and incubated in the dark for 30 min. Then the absorbance at 517 nm (A517) was measured against a mixture of DPPH solution and methanol (1:1) as a control.
(§3) All data are presented as IC50, which gave 50% inhibition of the activities and compared against the activity of Trolox—a common antioxidant, at the same concentrations.

[5] = ABTS•+ assay; settings: 15 min at 37 °C
Procedure: ABTS (2,2′-azino-bis (3-ethylbenzthiazoline-6-sulphonic acid) (7.0 mM) was mixed with potassium persulfate (2.45 mM) to obtain the cationic radical (ABTS•+) The solution was diluted in methanol (2 mL ABTS•+ + 58 mL methanol). The absorption at 743 nm of the resulting working solution was 1.1 ± 0.02 AU. Then, 1.425 mL of ABTS•+ working solution was added to 75 μL of the test drugs, and the absorption at 743 nm was measured after 15 min of incubation at 37 °C against methanol. A blank containing 75 μL of water instead of the test extract also was measured against methanol.
as §3

[6] = system: GSH in the liver homogenate; assay: Total glutathione in liver homogenate; type: in vivo, mice; settings: both doses (125 and 250 mg/kg) oral, 14 days
Procedure: as §2
According to Rahman et al. total glutathione (tGSH) concentration was determined. In the reaction between GSH and 5,5′-dithiobis-2-nitrobenzoic acid (DTNB), the rate of formation of colored substance, 5′-thio-2-nitrobenzoic acid (TNB), is proportional to the concentration of tGSH in the sample. The maximal absorption of colored TNB is at 412 nm. The concentration of tGSH was calculated using oxidized glutathione as a reference standard and was expressed as ng/mg protein.

[7] = system: Glutathione peroxidase in the liver supernatant; assay: Glutathione peroxidase activity in liver supernatant; type: in vivo, mice; settings: 125 and 250 mg/kg oral, 14 days; vs controls
Procedure: as §2
The Glutathione Peroxidase Cellular Activity Assay Kit (Cat. No. CGP1) and Glutathione Reductase Assay Kit (Cat. No. GRSA) were used to measure the activities of glutathione-related enzymes.

[8] = system: female Jcl:ICR mice; settings: i.p.; for Lethality: female mice
[9] = system: female Jcl:ICR mice
[10] = system: M. tuberculosis H37Rv reference strain; settings: ref [23]; cited from earlier work
[11] = in vivo; settings: female, Jcl:ICR, mouse, po
[12] = system: HEK-293T; settings: cited from earlier work
[13] = system: MDA in the liver homogenate; assay: Endogenous MDA (spontaneous lipid peroxidation) in liver homogenate; settings: both doses (125 and 250 mg/kg) oral, 14 days
Procedure: On day 14, the animals were anesthetized with ketamine/ xylazine and decapitated. […] Livers were taken to assess oxidative stress and antioxidant status in the study groups.
For the in vivo experiments (spontaneous lipid peroxidation) the postnuclear homogenates of the liver (mg protein/mL) in 0.15 M KCl—10 mM potassium phosphate buffer, pH 7.2, were heated for 15 min at 100 °C in the presence of 40% TCA + 5N HCl + 2% thiobarbituric acid (2:1:2 v/v) for color developing. After cooling and centrifugation, the absorbance was read at 532 nm against dd H2O as blank. The values were expressed in nmoles malondialdehyde (MDA) per mg protein, with a molar extinction coefficient of 1.56 × 10^−5 M^−1cm^−1.

COc1cc(C=NNC(=O)c2snnc2C)ccc1O [3a, N′-[(4-hydroxy-3-methoxyphenyl)methylidene]-4-methyl-1,2,3-thiadiazole-5-carbohydrazide]
Body weight gain compared to the beginning of the experimental period [1]: 41%
HCT ([2]; 125 mg/kg oral): 37.2 ± 2.6 ^+ %
Hgb ([2]; 125 mg/kg oral): 127 ± 5.4 ^+ g/L
PLT ([2]; 125 mg/kg oral): 979 ± 238 10^9/L
RBC ([2]; 125 mg/kg oral): 6.84 ± 0.3 ^+ × 10^12/L
WBC ([2]; 125 mg/kg oral): 6.3 ± 0.36 ^+ × 10^9/L
HCT ([2]; 250 mg/kg oral): 38.2 ± 1.8 ^+ %
Hgb ([2]; 250 mg/kg oral): 129 ± 3.8 ^+ g/L
PLT ([2]; 250 mg/kg oral): 638 ± 181 10^9/L
RBC ([2]; 250 mg/kg oral): 6.97± 0.3 ^+ × 10^12/L
WBC ([2]; 250 mg/kg oral): 7.4 ± 0.44 *^+ × 10^9/L
CBC deviations from the reference values ([2]; both doses (125 and 250 mg/kg) oral): no statistically significant deviations from the reference values
ALAT ([3]; 125 mg/kg oral): 62.2 ± 3.3 ^+ U/L
ALB ([3]; 125 mg/kg oral): 26.6 ± 2.2 ^+ g/L
ASAT ([3]; 125 mg/kg oral): 102 ± 3.6 ^+ U/L
CREAT ([3]; 125 mg/kg oral): 95.6 ± 6.6 ^+ µmol/L
D-Bil ([3]; 125 mg/kg oral): 3.4 ± 0.46 ^+ µmol/L
GLU ([3]; 125 mg/kg oral): 6.3 ± 0.36 mmol/L
T-Bil ([3]; 125 mg/kg oral): 7.6 ± 0.44 ^+ µmol/L
TP ([3]; 125 mg/kg oral): 54.3 ± 2.6 ^+ g/L
UA ([3]; 125 mg/kg oral): 163 ± 23.4 µmol/L
UREA ([3]; 125 mg/kg oral): 8.8 ± 0.28 ^+ mmol/L
ALAT ([3]; 250 mg/kg oral): 71.4 ± 3.4 *^+ U/L
ALB ([3]; 250 mg/kg oral): 27.3 ± 3.1 ^+ g/L
ASAT ([3]; 250 mg/kg oral): 113 ± 4.1 U/L
CREAT ([3]; 250 mg/kg oral): 86.4 ± 5.6 ^+ µmol/L
D-Bil ([3]; 250 mg/kg oral): 4.9 ± 0.34 ^+ µmol/L
GLU ([3]; 250 mg/kg oral): 7.1 ± 0.24 mmol/L
T-Bil ([3]; 250 mg/kg oral): 8.3 ± 0.28 ^+ µmol/L
TP ([3]; 250 mg/kg oral): 58.6 ± 3.6 ^+ g/L
UA ([3]; 250 mg/kg oral): 194 ± 17.7 µmol/L
UREA ([3]; 250 mg/kg oral): 11.5 ± 0.22 ^+ mmol/L
DPPH Scavenging, IC50 [4]: 47.5 * mg/mL
ABTS Scavenging, IC50 [5]: 89.47 * mg/mL
level of GSH in liver homogenate [6]: did not significantly increase the level of GSH
activity of GPx in liver [7]: restored the control values of GPx; also recorded: did not statistically significantly alter
Lethality ([8]; 500 mg/kg b.w.): 0/3
Lethality ([8]; 1000 mg/kg b.w.): 0/3
Symptoms before Death Occur ([8]; 1500 mg/kg b.w.): Delayed reflexes, somnolence, lethal outcome
Time of Occurrence of Fatal Outcome ([8]; 1500 mg/kg b.w.): After 30 h
Symptoms before Death Occur ([8]; 2000 mg/kg b.w.): Impaired coordination, rapid breathing, lethal outcome
Time of Occurrence of Fatal Outcome ([8]; 2000 mg/kg b.w.): After 24 h
Symptoms before Death Occur ([8]; 3000 mg/kg b.w.): Respiratory failure with long pauses, ataxia, piloerection, seizures, lethal outcome
Time of Occurrence of Fatal Outcome ([8]; 3000 mg/kg b.w.): After 20 h
resorption index (IR) = LD50 i.p./LD50 p.os. × 100 ([9]; mice): ≈ 49%; also recorded: ≈ 98%
Mortality ([9]; oral administration, highest dose of 3000 mg/kg): No mortality
MIC [10]: 0.0730 µM (≈ 0.0213 µg/mL)
LD50 at 14 days [11]: > 2500 mg/kg
IC50 [12]: 257 µM
MDA content in the liver [13]: restoration of MDA to the control levels
